# In patent US9109155B2, “Heterocycle-functionalized luminogens exhibiting aggregation-induced emission” (THE HONG KONG UNIVERSITY OF SCIENCE AND TECHNOLOGY, priority 2013, dated 2015):
# “Also recorded” adds a separate entry of the source.
# What was measured:
# caspase-3 = biological target: T1, caspase-3 (Homo sapiens, UniProt P42574); test: Ac-DEVD-PyTPE fluorescence turn-on assay with caspase-3 in PIPES buffer; format: biochemical
# T1 sequence (P42574 29-175 limits assumed): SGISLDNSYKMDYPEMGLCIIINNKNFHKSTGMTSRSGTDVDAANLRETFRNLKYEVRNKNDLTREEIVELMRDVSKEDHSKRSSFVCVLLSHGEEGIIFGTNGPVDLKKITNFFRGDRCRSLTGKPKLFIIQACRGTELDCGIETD
# T1 sequence (P42574 176-277 limits assumed): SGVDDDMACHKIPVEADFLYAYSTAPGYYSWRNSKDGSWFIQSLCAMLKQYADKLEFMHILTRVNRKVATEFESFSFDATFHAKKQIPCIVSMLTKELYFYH
# Method: [caspase-3]=5 μg mL^−1, [Ac-DEVD-PyTPE]=10 μM.
# (§1) Inset: photographs taken under UV illumination. λex=405 nm; λem=610 nm.
# Particles with an average diameter of 92 nm formed in addition to the increase of fluorescence in the solution (FIG. 43a). […] The caspase-3/7 catalyzed hydrolysis of Ac-DEVD-PyTPE is shown in the reaction scheme below.
# In the absence of caspase-3, nearly no change in fluorescence is observed, confirming that Ac-DEVD-PyTPE is specifically recognized and cleaved by caspase-3.
# (§2) As shown, caspase-3 and caspase-7 display respectively about 43- and 36-fold higher changes in (I−I0)/I0 than the other four enzymes.
# subcutaneous C6 tumor = test: In vivo and ex vivo fluorescence imaging of apoptosis in C6 tumor-bearing mice
# Method: Only apoptotic tumors were clearly visualized.
# Subcutaneous C6 tumor-bearing mice with and without intravenous injection of STS were imaged for 30 min using an IVIS spectrum imaging system. […] In contrast, the fluorescence signals from the tumor-bearing animals without treatment of STS and normal tissues are very weak. […] Additionally, the fluorescence changes in tumoral and normal tissues as a function of time for each experiment are shown in FIG. 50b. A 3-fold fluorescence enhancement of the apoptotic tumoral tissues relative to normal tissues is observed as early as 5 min after injection of Ac-DEVD-PyTPE, but only a slight fluorescence increase is observed over 15 min.
# FIG. 50c show IVIS spectrum analysis of apoptotic and non-apoptotic tumors that were excised immediately after in vivo imaging.
# [1] = tested on: caspase-3 activity in MCF-7 cells; test: CLSM imaging of caspase-3 activity / apoptosis in MCF-7 cells; format: cell-based
# Method: FIGS. 46a-46c show normal MCF-7 cells treated with Ac-DEVD-PyTPE (5 μM, 1% DMSO) for 2 h.
# FIGS. 46d-46f show apoptotic MCF-7 cells treated with Ac-DEVD-PyTPE (5 μM, 1% DMSO) and caspase-3 antibody. STS (3 μM) was used to induce cell apoptosis. Red=probe fluorescence; Green=immunofluorescence signal generated from anti-caspase-3 primary antibody and a FITC labeled secondary antibody.
# All images were acquired in the same way.
# Additionally, apoptotic MCF-7 cells were treated with both Ac-DEVD-PyTPE and commercial Annexin V-Alexa Fluor.
# [2] = Metabolic viability of MCF-7 cancer cells after incubation with probe; format: cell-based; details: human, 5, 10 and 20 μM for 12, 24 and 48 h, read-out: cell viability
# Text: This is indicative of the low cytotoxicity of the Ac-DEVD-PyTPE probe.
# caspase-7 = biological target: T2, caspase-7 (Homo sapiens, UniProt P55210); test: Ac-DEVD-PyTPE fluorescence turn-on assay with caspase-7; format: biochemical; details: caspase-7 vs pepsin, trypsin, papain, lysozyme; protein 20 μg mL^−1; λex 405 nm, λem 610 nm
# T2 sequence (P55210 24-198 limits assumed): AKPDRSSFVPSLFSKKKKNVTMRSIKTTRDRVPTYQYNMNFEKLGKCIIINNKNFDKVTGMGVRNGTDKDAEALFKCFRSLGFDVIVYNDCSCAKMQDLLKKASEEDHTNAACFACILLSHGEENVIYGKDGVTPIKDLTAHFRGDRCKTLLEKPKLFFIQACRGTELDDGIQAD
# T2 sequence (P55210 207-303 limits assumed): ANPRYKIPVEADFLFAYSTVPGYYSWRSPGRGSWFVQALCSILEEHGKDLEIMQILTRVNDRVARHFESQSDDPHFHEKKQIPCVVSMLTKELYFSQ
# Text: as §1, §2
# HeLa cells = test: Photobleaching under continuous laser excitation in stained HeLa cells; format: cell-based; details: continuous excitation 180 s, 0.6 mW; 405 nm for TPEPy-PF6, 588 nm for MitoTracker Red
# C6 tumor = test: In vivo screening of apoptosis inducing agents in C6 tumor-bearing mice; details: treated overnight, probe injected into tumor, 15 min; compared with DMSO, cisplatin, sodium ascorbate
# Method: C6 tumor-bearing mice were treated with several compounds, namely DMSO, STS, cisplatin (CIS), and sodium ascorbate (Na asb), overnight, and Ac-DEVD-PyTPE was subsequently injected into the tumor directly. After 15 min incubation, the mice were imaged using an IVIS spectrum imaging system.
# MCF-7 cells = test: In situ screening of apoptosis inducers in MCF-7 cells with Ac-DEVD-PyTPE; format: cell-based; details: 3 μM in DMSO, 2 h; compared with sodium ascorbate and cisplatin
# Method: [Ac-DEVD-PyTPE]=3 μM. All images were acquired in the same way.
# Three known apoptosis inducers, sodium ascorbate, cisplatin and STS, were used to treat MCF-7 cells. After the cells were incubated with Ac-DEVD-PyTPE for 2 h, each compound (3 μM in DMSO) was added into the chamber for an additional 2 h incubation. The apoptosis-inducing capabilities of these agents were evaluated by monitoring the cell fluorescence increase with a confocal microscopy.
# [3] = Fluorescent sensing of Hg2+ in aqueous buffer and in solid film
# Method: I0=the emission intensity at 640 nm in absence of Hg^2+. Inset: photographs of TPEBe-I in aqueous buffer with [Hg^2+] of 0 and 2.0 mM taken under 365 nm UV illumination. Solution concentration: 20 μM; excitation wavelength: 480 nm.
# Black bars represent the addition of different metal ion (2 mM) to solution of the TPEBe-I. Red bars represent the subsequent addition of 2 mM Hg^2+ to the solution. λex=480 nm. λem=640 nm.
# Accordingly, in one embodiment, the present subject matter relates to the use of Hg^2+ to bind to iodine ions in TPEBe-I in order to restore the emission of the cationic luminogen. […] In addition, the spectrum slightly red-shifted with increasing concentration of Hg^2+. […] When the concentration of Hg^2+ is 2.0 mM, the emission intensity of TPEBe-I is enhanced 80-fold. Moreover, the emission color also changes from dark into bright red under 365 nm UV illumination. Accordingly, another embodiment of the present subject matter relates to the use of TPEBe-I luminogens as an “off-on” sensor for Hg^2+ in aqueous solution.
# In addition, the present subject matter relates to using the TPEBe-I luminogen as a fluorescent sensor for Hg^2+.
# This is likely due to protons combining with iodine ions, leading to a faint increase in emission. In contrast, under basic conditions (pH≧7), TPEBe-I in the absence of Hg^2+ is weakly emissive due to the quenching effect of the iodine ions. […] The emission intensity decreases at a pH greater than 8, but is still higher than the emission intensity of TPEBe-I in the absence of Hg^2+. […] The lower emission intensity of TPEBe-I under more basic conditions is attributed to the formation of Hg(OH)2, thereby reducing the amount of free Hg^2+. In addition, the hydroxyl group (OH) in basic conditions can destroy the structure of TPEBe-I, resulting in inactivation of its sensing ability.
# In another embodiment, a solid-state fluorescent probe for the detection of Hg^2+ was developed using the TPEBe-I luminogen. […] As shown, the spots of film polluted by the aqueous solution containing Hg^2+ changed to a red color with varying degrees while the untreated surrounding areas show the initial dark color. This illustrates that the solid-state film of TPEBe-I has a very sensitive response to Hg^2+ in a pure aqueous solution. Therefore, one embodiment of the present subject matter relates to the use a TPEBe-I solid-state fluorescent probe for detecting and tracking the amount of Hg^2+ in an aqueous solution. In one embodiment, the detection amount can reach 1 μM ([…]).
# Solubility = details: for solubility in common organic solvents: THF, toluene, DCM, chloroform
# [4] = Fluorescent sensing of ATP in aqueous solution with 1% DMSO
# Method: I0=PL intensity at 620 nm in absence of ATP. Inset in B: plot of (I−I0)/I0 value versus concentration of ATP from 0 to 20 μM.
# I0=photoluminescence intensity at 620 nm in absence of nucleotide. Inset: Photographs of TPBBe-I in aqueous solution with 1% DMSO with various nucleotides (600 μM) taken under 365 nm UV illumination.
# When the concentration of ATP is 600 μM, the emission intensity of TPEBe-I increases 20-fold. Moreover, the emission color also changes from dark into bright red under 365 nm UV illumination (FIG. 53b). […] Obviously, the value of (I−I0)/I0 has a linear relationship with ATP from 0 to 20 μM.
# The fluorescence response of TPEBe-I was carried out using ATP, ADP and AMP. […] Accordingly, one embodiment relates to the use of TPEBe-I as a highly sensitive and selective fluorescent sensor for ATP.
# [5] = tested on: mitochondria of HeLa cells; test: Living HeLa cell staining and co-staining with MitoTracker Red; format: cell-based; details: 15 min
# Method: In a further embodiment, the present subject matter is directed to the use of the TPEPy-PF6 luminogen as a fluorescent stain for living cell imaging. Nanoaggregates of TPEPy-PF6 were prepared in minimum essential medium/DMSO mixtures and the HeLa cells were imaged using a standard cell-staining protocol. The living cells were incubated with TPEPy-PF6 (5 μM) for 15 min and then washed three times with phosphate buffered saline solution.
# Living cells were incubated with both mitochondria-targeted dye MitoTracker Red (100 nM) and TPEPy-PF6 (5 μM) for 15 min at 37° C. by the above procedure. […] Therefore, one embodiment of the present subject matter relates to the use of the TPEPy-PF6 luminogen to exclusively stain the mitochondria of living cells.
# [6] = excised immediately after in vivo imaging
smiles,measurement,setting,value
CC(=O)N[C@@H](CC(=O)O)C(=O)N[C@@H](CCC(=O)O)C(=O)N[C@H](C(=O)N[C@@H](CC(=O)O)C(=O)N[C@@H](Cc1cn(CCCC[n+]2ccc(/C=C/c3ccc(C(=C(c4ccccc4)c4ccccc4)c4ccccc4)cc3)cc2)nn1)C(N)=O)C(C)C [Ac-DEVD-PyTPE],fluorescence of the probe treated with caspase-3,"caspase-3; PIPES buffer pH 7.2, caspase-3 5 μg mL^−1, probe 10 μM",strong fluorescence signals
same,fold higher change in (I−I0)/I0 than the other four enzymes,"caspase-3; caspase-3 vs pepsin, trypsin, papain, lysozyme, protein 20 μg mL^−1, λex 405 nm, λem 610 nm",about 43 fold
same,fluorescence enhancement of apoptotic tumoral tissues relative to normal tissues,"subcutaneous C6 tumor; STS pretreatment, 5 min after intratumoral injection of probe",3 fold
same,fluorescence of excised tumor/(+)STS tissues,subcutaneous C6 tumor; [6],high fluorescence signal
same,fluorescence of excised tumor/(−)STS tissues,subcutaneous C6 tumor; [6],almost no fluorescence
same,probe fluorescence in normal un-induced cells,"[1]; 5 μM, 1% DMSO, 2 h",extremely low fluorescence signal
same,probe fluorescence in STS-induced apoptotic cells,"[1]; probe 5 μM, STS 3 μM",strong fluorescence signals
same,viability,[2],~100%
same,fold higher change in (I−I0)/I0 than the other four enzymes,caspase-7,~36 fold
"COC[C@@H]1CCCN1S(=O)(=O)c1ccc2c(c1)C(=O)C(=O)N2 [MPS, 5-[(S)-(+)-2-(methoxymethyl)pyrrolidino]sulfonylisatin, reference compound]",inhibition of caspase-3 cleavage of Ac-DEVD-PyTPE (fluorescence),"caspase-3; pre-treatment with inhibitor 10 μM, PIPES buffer",Most of the fluorescence was readily competed away
same,probe fluorescence in STS-induced cells pre-treated with inhibitor,[1]; inhibitor 10 μM before incubation with Ac-DEVD-PyTPE,greatly reduced
"ClCc1ccc(C2=c3cc4c5c(c3Oc3c2cc2c6c3CCCN6CCC2)CCC[N+]=5CCC4)cc1.[Cl-] [MitoTracker Red, reference compound]",luminescence intensity remaining relative to initial value,HeLa cells,about 20%
"CN[C@@H]1C[C@H]2O[C@@](C)([C@@H]1OC)n1c3ccccc3c3c4c(c5c6ccccc6n2c5c31)C(=O)NC4 [STS, staurosporine]",efficacy of apoptosis inducing agent (tumor fluorescence),C6 tumor,strongest fluorescence
same,apoptosis-inducing capability (cell fluorescence increase),MCF-7 cells,strongest fluorescence enhancement
CC[n+]1c(/C=C/c2ccc(C(=C(c3ccccc3)c3ccccc3)c3ccccc3)cc2)sc2ccccc21 [TPEBe-ClO4],emission intensity upon addition of Hg^2+,"[3]; Hg^2+ 0-2.0 mM, pH 7.4 HEPES, 1% DMSO",also increased
same,solubility in common organic solvents,Solubility,soluble
same,solubility in water,Solubility,insoluble
CC[n+]1c(/C=C/c2ccc(C(=C(c3ccccc3)c3ccccc3)c3ccccc3)cc2)sc2ccccc21 [TPEBe-I],emission intensity increase,"[4]; ATP 600 μM, luminogen 20 μM, λex 480 nm",20 fold
same,emission change with ADP and AMP,"[4]; other nucleotides, aqueous solution with 1% DMSO",negligible changes
same,emission intensity enhancement,"[3]; Hg^2+ 2.0 mM, luminogen 20 μM, pH 7.4 HEPES, 1% DMSO, λex 480 nm",80 fold
same,emission change with other metal ions,"[3]; Zn, Ni, Co, Cd, Cu, Mn, Ca, Fe, Mg, Ag, Pd ions 2.0 mM",negligible changes
same,detection amount of Hg^2+,"[3]; solid-state film, aqueous Hg^2+ 5 μL",1 µM
same,solubility in common organic solvents,Solubility,soluble
same,solubility in water,Solubility,insoluble
CC[n+]1c(/C=C/c2ccc(C(=C(c3ccccc3)c3ccccc3)c3ccccc3)cc2)sc2ccccc21 [TPEBe-PF6],solubility in common organic solvents,Solubility,soluble
same,solubility in water,Solubility,insoluble; also recorded: not soluble
C[n+]1ccc(/C=C/c2ccc(C(=C(c3ccccc3)c3ccccc3)c3ccccc3)cc2)cc1 [TPEPy-PF6],"mitochondria staining: position, shape and amounts compared with MitoTracker Red","[5]; 5 μM with MitoTracker Red 100 nM, 37° C.",the same as for MitoTracker Red
same,toxicity to living cells (cell morphology),[5]; 5 μM,low toxicity
same,solubility in water,Solubility,not soluble
same,luminescence intensity remaining relative to initial value,HeLa cells,~70%
